Laboratory results taken from patent US20150017667A1, “MEANS AND METHODS FOR ASSESSING LIVER DISORDERS” (BASF SE, priority 2012, published 2015).
Marks after values point to notes of the source that are not given here.

Tested on: female rats
Test: 28-day repeated dose oral toxicity study (OECD 407) with GC-MS/LC-MS plasma metabolite profiling, female rats

## CN1CCCC1=O [1-Methyl-2-pyrrolidon]
Day 7
  3-O-Methylsphingosine (d18:1), ratio versus control: 2.14*
  5-O-Methylsphingosine (d18:1), ratio versus control: 2.42*
  14-Methylhexadecanoic acid, ratio versus control: 1.15
  Behenic acid (C22:0), ratio versus control: 1.9*
  Cholesterol, ratio versus control: 1.73*
  Coenzyme Q9, ratio versus control: 2.46*
  DAG (C18:1,C18:2), ratio versus control: 2.43*
  Eicosanoic acid (C20:0), ratio versus control: 1.77*
  Glucose, ratio versus control: 1.05*
  Glycerol phosphate, lipid fraction, ratio versus control: 1.86*
  Glycerol, lipid fraction, ratio versus control: 2.24*
  Glycerol-3-phosphate, polar fraction, ratio versus control: 1.9*
  Heptadecanoic acid (C17:0), ratio versus control: 1.46*
  Linoleic acid (C18:cis[9,12]2), ratio versus control: 2.52*
  Nervonic acid (C24:cis[15]1), ratio versus control: 1.75*
  Palmitic acid (C16:0), ratio versus control: 1.91*
  Phosphatidylcholine (C16:0,C20:5), ratio versus control: 1.32*
  TAG (C16:0,C18:1,C18:3), ratio versus control: 3.94*
  TAG (C16:0,C18:2), ratio versus control: 2.46*
  TAG (C18:1,C18:2), ratio versus control: 3.73*
  TAG (C18:2,C18:2), ratio versus control: 3.44*
  TAG (C18:2,C18:3), ratio versus control: 4.16*
  TAG No 01, ratio versus control: 3.21*
  TAG No 05, ratio versus control: 3.11*
  TAG No 07, ratio versus control: 3.69*
  dihomo-gamma-Linolenic acid (C20:cis[8,11,14]3), ratio versus control: 2.37*
  erythro-Sphingosine, ratio versus control: 2.19*
Day 14
  3-O-Methylsphingosine (d18:1), ratio versus control: 2.3*
  5-O-Methylsphingosine (d18:1), ratio versus control: 2.31*
  14-Methylhexadecanoic acid, ratio versus control: 0.93
  Behenic acid (C22:0), ratio versus control: 2.04*
  Cholesterol, ratio versus control: 2.16*
  Coenzyme Q9, ratio versus control: 2.57*
  DAG (C18:1,C18:2), ratio versus control: 2.31*
  Eicosanoic acid (C20:0), ratio versus control: 1.8*
  Glucose, ratio versus control: 0.99
  Glycerol phosphate, lipid fraction, ratio versus control: 1.72*
  Glycerol, lipid fraction, ratio versus control: 2.33*
  Glycerol-3-phosphate, polar fraction, ratio versus control: 1.11*
  Heptadecanoic acid (C17:0), ratio versus control: 1.39*
  Linoleic acid (C18:cis[9,12]2), ratio versus control: 2.4*
  Nervonic acid (C24:cis[15]1), ratio versus control: 1.64*
  Palmitic acid (C16:0), ratio versus control: 1.95*
  Phosphatidylcholine (C16:0,C20:5), ratio versus control: 1.45*
  TAG (C16:0,C18:1,C18:3), ratio versus control: 4.14*
  TAG (C16:0,C18:2), ratio versus control: 3.6*
  TAG (C18:1,C18:2), ratio versus control: 3.82*
  TAG (C18:2,C18:2), ratio versus control: 3.56*
  TAG (C18:2,C18:3), ratio versus control: 3.61*
  TAG No 01, ratio versus control: 4.15*
  TAG No 05, ratio versus control: 5.32*
  TAG No 07, ratio versus control: 3.84*
  dihomo-gamma-Linolenic acid (C20:cis[8,11,14]3), ratio versus control: 2.16*
  erythro-Sphingosine, ratio versus control: 2.27*
Day 28
  3-O-Methylsphingosine (d18:1), ratio versus control: 1.83*
  5-O-Methylsphingosine (d18:1), ratio versus control: 1.89*
  14-Methylhexadecanoic acid, ratio versus control: 1.35*
  Behenic acid (C22:0), ratio versus control: 2.06*
  Cholesterol, ratio versus control: 2.38*
  Coenzyme Q9, ratio versus control: 3.27*
  DAG (C18:1,C18:2), ratio versus control: 6.81*
  Eicosanoic acid (C20:0), ratio versus control: 2.79*
  Glucose, ratio versus control: 0.76*
  Glycerol phosphate, lipid fraction, ratio versus control: 2.59*
  Glycerol, lipid fraction, ratio versus control: 5.75*
  Glycerol-3-phosphate, polar fraction, ratio versus control: 1.29
  Heptadecanoic acid (C17:0), ratio versus control: 2.17*
  Linoleic acid (C18:cis[9,12]2), ratio versus control: 4.46*
  Nervonic acid (C24:cis[15]1), ratio versus control: 1.75*
  Palmitic acid (C16:0), ratio versus control: 3.53*
  Phosphatidylcholine (C16:0,C20:5), ratio versus control: 1.35*
  TAG (C16:0,C18:1,C18:3), ratio versus control: 11.37*
  TAG (C16:0,C18:2), ratio versus control: 3.51*
  TAG (C18:1,C18:2), ratio versus control: 7.38*
  TAG (C18:2,C18:2), ratio versus control: 7.33*
  TAG (C18:2,C18:3), ratio versus control: 11.21*
  TAG No 01, ratio versus control: 11.51*
  TAG No 05, ratio versus control: 10.76*
  TAG No 07, ratio versus control: 14.21*
  dihomo-gamma-Linolenic acid (C20:cis[8,11,14]3), ratio versus control: 3.96*
  erythro-Sphingosine, ratio versus control: 1.9*

## CNC(=O)/C(=N/OC)c1ccccc1COc1cc(C)ccc1C [Dimoxystrobin, (E)-2-(methoxyimino)-N-methyl-2-[alpha-(2,5-xylyloxy)-o-tolyl]acetamide]
Day 7
  3-O-Methylsphingosine (d18:1), ratio versus control: 2.18*
  5-O-Methylsphingosine (d18:1), ratio versus control: 1.94*
  14-Methylhexadecanoic acid, ratio versus control: 1.27
  Behenic acid (C22:0), ratio versus control: 2.03*
  Cholesterol, ratio versus control: 1.66*
  Coenzyme Q9, ratio versus control: 1.51*
  DAG (C18:1,C18:2), ratio versus control: 2.28*
  Eicosanoic acid (C20:0), ratio versus control: 2.23*
  Glucose, ratio versus control: 1.14
  Glycerol phosphate, lipid fraction, ratio versus control: 1.68*
  Glycerol, lipid fraction, ratio versus control: 2.08*
  Glycerol-3-phosphate, polar fraction, ratio versus control: 1.38
  Heptadecanoic acid (C17:0), ratio versus control: 1.81*
  Linoleic acid (C18:cis[9,12]2), ratio versus control: 2.12*
  Nervonic acid (C24:cis[15]1), ratio versus control: 1.83*
  Palmitic acid (C16:0), ratio versus control: 1.99*
  Phosphatidylcholine (C16:0,C20:5), ratio versus control: 1.33*
  TAG (C16:0,C18:1,C18:3), ratio versus control: 4.17*
  TAG (C16:0,C18:2), ratio versus control: 3.49*
  TAG (C18:1,C18:2), ratio versus control: 4.18*
  TAG (C18:2,C18:2), ratio versus control: 3.69*
  TAG (C18:2,C18:3), ratio versus control: 3.61*
  TAG No 01, ratio versus control: 2.62*
  TAG No 05, ratio versus control: 2.89*
  TAG No 07, ratio versus control: 2.5*
  dihomo-gamma-Linolenic acid (C20:cis[8,11,14]3), ratio versus control: 2.95*
  erythro-Sphingosine, ratio versus control: 1.86*
Day 14
  3-O-Methylsphingosine (d18:1), ratio versus control: 1.78*
  5-O-Methylsphingosine (d18:1), ratio versus control: 1.94*
  14-Methylhexadecanoic acid, ratio versus control: 1.15
  Behenic acid (C22:0), ratio versus control: 2.23*
  Cholesterol, ratio versus control: 1.7*
  Coenzyme Q9, ratio versus control: 1.91
  DAG (C18:1,C18:2), ratio versus control: 2.99*
  Eicosanoic acid (C20:0), ratio versus control: 2.54*
  Glucose, ratio versus control: 1.17
  Glycerol phosphate, lipid fraction, ratio versus control: 1.69*
  Glycerol, lipid fraction, ratio versus control: 2.44*
  Glycerol-3-phosphate, polar fraction, ratio versus control: 1.32*
  Heptadecanoic acid (C17:0), ratio versus control: 1.73*
  Linoleic acid (C18:cis[9,12]2), ratio versus control: 2.2*
  Nervonic acid (C24:cis[15]1), ratio versus control: 1.54*
  Palmitic acid (C16:0), ratio versus control: 1.89*
  Phosphatidylcholine (C16:0,C20:5), ratio versus control: 1.54*
  TAG (C16:0,C18:1,C18:3), ratio versus control: 5.45*
  TAG (C16:0,C18:2), ratio versus control: 4.36*
  TAG (C18:1,C18:2), ratio versus control: 3.37*
  TAG (C18:2,C18:2), ratio versus control: 3.82*
  TAG (C18:2,C18:3), ratio versus control: 2.41*
  TAG No 01, ratio versus control: 1.93*
  TAG No 05, ratio versus control: 3.02*
  TAG No 07, ratio versus control: 3.54*
  dihomo-gamma-Linolenic acid (C20:cis[8,11,14]3), ratio versus control: 2.58*
  erythro-Sphingosine, ratio versus control: 1.78*
Day 28
  3-O-Methylsphingosine (d18:1), ratio versus control: 1.52*
  5-O-Methylsphingosine (d18:1), ratio versus control: 1.59*
  14-Methylhexadecanoic acid, ratio versus control: 1.31*
  Behenic acid (C22:0), ratio versus control: 2.03*
  Cholesterol, ratio versus control: 1.75*
  Coenzyme Q9, ratio versus control: 1.78*
  DAG (C18:1,C18:2), ratio versus control: 2.85*
  Eicosanoic acid (C20:0), ratio versus control: 2.08*
  Glucose, ratio versus control: 1.15
  Glycerol phosphate, lipid fraction, ratio versus control: 1.98*
  Glycerol, lipid fraction, ratio versus control: 2.58*
  Glycerol-3-phosphate, polar fraction, ratio versus control: 1.79
  Heptadecanoic acid (C17:0), ratio versus control: 2.84*
  Linoleic acid (C18:cis[9,12]2), ratio versus control: 2.2*
  Nervonic acid (C24:cis[15]1), ratio versus control: 1.38*
  Palmitic acid (C16:0), ratio versus control: 2.03*
  Phosphatidylcholine (C16:0,C20:5), ratio versus control: 1.15*
  TAG (C16:0,C18:1,C18:3), ratio versus control: 3.93*
  TAG (C16:0,C18:2), ratio versus control: 3.68*
  TAG (C18:1,C18:2), ratio versus control: 4.49*
  TAG (C18:2,C18:2), ratio versus control: 5.11*
  TAG (C18:2,C18:3), ratio versus control: 3.9*
  TAG No 01, ratio versus control: 2.61*
  TAG No 05, ratio versus control: 4.39*
  TAG No 07, ratio versus control: 4.13*
  dihomo-gamma-Linolenic acid (C20:cis[8,11,14]3), ratio versus control: 3.54*
  erythro-Sphingosine, ratio versus control: 1.46*
